In patent publication US9169254B2, “Spiroimidazolone derivative” (Chugai Seiyaku Kabushiki Kaisha, priority 2009, dated 2015):

What follows are compounds tested against T1, human PTH1 receptor (Homo sapiens, UniProt Q03431) (assay: In vitro cAMP signal activity in HKRK-B7 cells (LLC-PK1 cells overexpressing the human PTH1 receptor)). Conditions: 0.1 µM.
T1 sequence (Q03431 27-593): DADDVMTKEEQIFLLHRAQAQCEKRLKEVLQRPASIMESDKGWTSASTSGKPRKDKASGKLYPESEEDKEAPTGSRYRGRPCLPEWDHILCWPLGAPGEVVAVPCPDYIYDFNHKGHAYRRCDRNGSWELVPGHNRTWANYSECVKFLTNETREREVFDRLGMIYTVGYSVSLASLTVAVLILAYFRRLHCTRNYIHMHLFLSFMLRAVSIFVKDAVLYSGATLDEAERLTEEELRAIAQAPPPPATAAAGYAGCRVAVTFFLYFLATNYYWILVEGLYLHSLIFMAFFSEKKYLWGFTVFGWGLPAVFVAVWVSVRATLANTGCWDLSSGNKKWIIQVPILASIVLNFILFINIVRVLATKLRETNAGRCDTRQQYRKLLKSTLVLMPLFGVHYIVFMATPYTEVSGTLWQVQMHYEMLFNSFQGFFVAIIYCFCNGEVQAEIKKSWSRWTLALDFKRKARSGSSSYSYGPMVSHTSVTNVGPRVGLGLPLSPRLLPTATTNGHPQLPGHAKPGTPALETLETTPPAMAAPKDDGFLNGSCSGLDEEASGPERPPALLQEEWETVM
Type: cell-based

Structure (SMILES)	cAMP production activity (%)
Cc1cc(N(C)C(N)=O)cc(C)c1CCS(=O)(=O)N1CCC2(CC1)N=C(c1cccc(C(F)(F)C(F)(F)C(F)(F)C(F)(F)F)c1)NC2=O [Compound 1341, 1-(3,5-dimethyl-4-{2-[2-(3-nonafluorobutyl-phenyl)-4-oxo-1,3,8-triaza-spiro[4.5]dec-1-ene-8-sulfonyl]-ethyl}-phenyl)-1-methyl-urea]	83%

Same assay, conditions: HKRK-B7 cells; compound at 1×10^−3 M; cAMP produced as percentage of that produced by hPTH(1-34) at 100 nM

Structure (SMILES)	cAMP production activity (%)
Cc1cc(N(C)c2ncc[nH]2)cc(C)c1CCS(=O)(=O)N1CCC2(CC1)N=C(C1CCC(C)CC1)NC2=O (stereo not shown) [Compound 868, 8-(2-{4-[(1H-imidazol-2-yl)-methyl-amino]-2,6-dimethyl-phenyl}-ethanesulfonyl)-2-(4-methyl-cyclohexyl)-1,3,8-triaza-spiro[4.5]dec-1-en-4-one]	77%
Cc1cc(C(=O)N2CCC(C)(O)CC2)cc(C)c1/C=C/S(=O)(=O)N1CCC2(CC1)N=C(c1cc(OCC(F)(F)C(F)F)cc(C(F)(F)F)c1)NC2=O [Compound 1226, 8-{(E)-2-[4-(4-hydroxy-4-methyl-piperidine-1-carbonyl)-2,6-dimethyl-phenyl]-ethenesulfonyl}-2-[3-(2,2,3,3-tetrafluoro-propoxy)-5-trifluoromethyl-phenyl]-1,3,8-triaza-spiro[4.5]dec-1-en-4-one]	51%
Cc1ccc(NCCO)cc1/C=C/S(=O)(=O)N1CCC2(CC1)N=C(C1CCCCC1)NC2=O [Compound 199, 2-cyclohexyl-8-{(E)-2-[5-(2-hydroxy-ethylamino)-2-methyl-phenyl]-ethenesulfonyl}-1,3,8-triaza-spiro[4.5]dec-1-en-4-one]	46%
COC(=O)Nc1ccc(C)c(CCS(=O)(=O)N2CCC3(CC2)N=C(C2CCCCC2)NC3=O)c1 [Compound 274, {3-[2-(2-cyclohexyl-4-oxo-1,3,8-triaza-spiro[4.5]dec-1-ene-8-sulfonyl)-ethyl]-4-methyl-phenyl}-carbamic acid methyl ester]	74%
Cc1cc(N(C)c2c(N(C)C)c(=O)c2=O)cc(C)c1CCS(=O)(=O)N1CCC2(CC1)N=C([C@H]1CC[C@H](C)CC1)NC2=O [Compound 1369, 3-Dimethylamino-4-[(3,5-dimethyl-4-{2-[2-(4-methyl-cyclohexyl)-4-oxo-1,3,8-triaza-spiro[4.5]dec-1-ene-8-sulfonyl]-ethyl}-phenyl)-methyl-amino]-cyclobut-3-ene-1,2-dione]	30%
Cc1cc(N2CCCCC2=O)cc(C)c1CCS(=O)(=O)N1CCC2(CC1)N=C(C1CCC(C)CC1)NC2=O (stereo not shown) [Compound 771, 8-{2-[2,6-dimethyl-4-(2-oxo-piperidin-1-yl)-phenyl]-ethanesulfonyl}-2-(4-methyl-cyclohexyl)-1,3,8-triaza-spiro[4.5]dec-1-en-4-one]	80%
Cc1cc(N2C(=O)CNC2=O)cc(C)c1/C=C/S(=O)(=O)N1CCC2(CC1)N=C(C1CCC(C)CC1)NC2=O (stereo not shown) [Compound 575, 3-(3,5-Dimethyl-4-{(E)-2-[2-(4-methyl-cyclohexyl)-4-oxo-1,3,8-triaza-spiro[4.5]dec-1-ene-8-sulfonyl]-vinyl}-phenyl)-imidazolidine-2,4-dione]	57%
CCCS(=O)(=O)CCCCCC1=NC2(CCN(S(=O)(=O)CCc3c(C)cc(N(C)C(N)=O)cc3C)CC2)C(=O)N1 [Compound 1356, 1-[3,5-dimethyl-4-(2-{4-oxo-2-[5-(propane-1-sulfonyl)-pentyl]-1,3,8-triaza-spiro[4.5]dec-1-ene-8-sulfonyl}-ethyl)-phenyl]-1-methyl-urea]	14%
Cc1cc(N(C2CCOCC2)S(C)(=O)=O)cc(C)c1/C=C/S(=O)(=O)N1CCC2(CC1)N=C(c1cccc(OC(F)(F)F)c1)NC2=O [Compound 534, N-(3,5-dimethyl-4-{(E)-2-[4-oxo-2-(3-trifluoromethoxy-phenyl)-1,3,8-triaza-spiro[4.5]dec-1-ene-8-sulfonyl]-vinyl}-phenyl)-N-(tetrahydro-pyran-4-yl)-methane sulfonamide]	39%
